Entries after “also recorded” stand apart in the source; their conditions may differ.
Legend:
[1] = tested on: Akt phosphorylation; experiment: Immunoblot of Akt phosphorylation in HEK293 cells; type: cell-based, human; settings: 25 mM 2-DG
Experimental: (§1) HEK293 cells were seeded and maintained in Dulbecco's modified Eagle's medium (DMEM) containing 10% fetal bovine serum (FBS). Transfection was performed in serum-free conditions using Lipofectamine reagent (Invitrogen, Carlsbad, Calif.) in accordance with the manufacturer's instructions. In brief, 4 h after transfection, the cells were recovered in DMEM containing 10% FBS for 16 h and then starved for 16-24 h. Cells were then lysed in lysis buffer (10 mM Tris-HCl at pH 7.5, 100 mM sodium chloride, 1% NP-40, 1% Triton X-100, 50 mM sodium fluoride, 2 mM EDTA, 1 mM phenyl methylsulphonyl fluoride, 10 μg ml^−1 leupeptin and 10 μg ml^−1 aprotinine) and immunoprecipitated with the indicated antibodies and protein G-Sepharose beads. Immunocomplexes were analyzed by SDS-polyacrylamide gel electrophoresis (PAGE).

[2] = tested on: eukaryotic elongation factor 2 (eEF2); settings: Horman et al.; cited from earlier work
[3] = tested on: intracellular ATP levels; experiment: Intracellular ATP levels and AMP/ATP ratio; type: cell-based; settings: 25 mM
[4] = tested on: HEK293 cells; experiment: Cell size of HEK293 cells by FACS; type: cell-based, human; settings: 12.5 mM 2-DG or 20 nM rapamycin, 72 hours
Experimental: FIGS. 17a-17b show TSC2 plays roles for cell size control in response to energy starvation. […] HEK293 cells were cultured in the presence of 12.5 mM 2DG, TSC2 RNAi, or 20 nM rapamycin for 72 hours. Cells were harvested and FACS analysis was performed to determine cell size. The X-axis indicates relative cell size. Cell size distribution curve of the control, as indicated by the gray curve, is included in each panel for comparison purposes. […] Experiments are similar to those in panel A.

[5] = tested on: EEF4 (TSC2+/+) cells; experiment: S6K and 4EBP1 phosphorylation in EEF4 (TSC2+/+) fibroblasts; type: cell-based
[6] = tested on: EEF8 (TSC2−/−) cells; experiment: S6K and 4EBP1 phosphorylation in EEF8 (TSC2-/-) fibroblasts; type: cell-based
[7] = tested on: phosphorylation of S6K, S6, 4EBP1 and mTOR; experiment: Immunoblot of S6K, S6, 4EBP1 and mTOR phosphorylation in HEK293 cells under energy depletion; type: cell-based, human
Experimental: as §1

[8] = tested on: S6K and 4EBP1; settings: cited from earlier work
[9] = tested on: AMPK; settings: Corton et al.; cited from earlier work
[10] = tested on: TSC2; experiment: TSC2/TSC1 phosphorylation in transfected HEK293 cells (mobility shift, 32P labelling, two-dimensional phosphopeptide mapping); type: cell-based, human
Experimental: as §1
HEK293 cells were cotransfected with HA-tagged TSC2, Myc-tagged TSC1 and the indicated plasmids. Cells were phosphate- and serum-starved for 4 h before incubation with 0.25 mCi ml^−1 32P-orthophosphate (ICN) for 4 h.
Cells were washed once with ice-cold PBS and lysed. HA-tagged TSC2 was immunoprecipitated, resolved by SDS-PAGE and transferred to a PVDF membrane. Phosphorylated TSC2 was visualized by autoradiography and phosphopeptide mapping was then performed. In brief, the phosphorylated TSC2 bands were excised, fixed in methanol and incubated in 500 μl of 0.5% polyvinylpyrrolidone-40 dissolved in 100 mM acetic acid for 30 min at 37° C. The sample were then digested with 20 μg of TPCK-treated trypsin (Sigma) at 37° C. in 75 mM ammonium bicarbonate buffer at pH 8.0 containing 5% acetonitrile. After digestion, samples were dried under vacuum and suspended in 10 μl of water. Samples were spotted onto a cellulose plate and first dimensional electrophoresis was performed using 1% ammonium bicarbonate buffer at pH 8.9. The plates were separated by chromatography in the second dimension in chromatography buffer (n-butanol:pyridine:acetic acid:water; 20:24:6:30). The plates were dried and phosphopeptides were visualized by autoradiography.

[11] = tested on: AMPK; experiment: Immunoblot of AMPK T172 phosphorylation (AMPK activation); type: cell-based; settings: 25 mM
Experimental: as §1

[12] = tested on: acetyl CoA carboxylase (ACC) and eukaryote elongation factor 2 (eEF2); experiment: Phosphorylation of the AMPK substrates ACC and eEF2; type: cell-based
[13] = tested on: AMPK and TSC2 interaction; experiment: Co-immunoprecipitation of endogenous AMPK and TSC2; type: cell-based, human; settings: HEK293
Experimental: as §1

Q: What does the source list for `O=CC[C@@H](O)[C@H](O)[C@H](O)CO` [2-DG, 2-deoxy-glucose]?
A: Akt phosphorylation [1]: had little effect; phosphorylation of eEF2 [2]: increase phosphorylation; AMP/ATP ratio [3]: increase; also recorded: increases the AMP/ATP ratio; ATP levels [3]: statistically significant reduction; also recorded: decreases intracellular ATP levels; cell size [4]: significantly decreased cell size; also recorded: decreases cell size; cell size ([4]; listed as 2DG): decreases cell size; 4EBP1 phosphorylation [5]: inhibition of phosphorylation of 4EBP1; S6K and 4EBP1 phosphorylation ([6]; EEF8, TSC2 T1227A/S1345A mutant expressing cells): less responsive to 2-DG treatment; S6K and 4EBP1 phosphorylation ([6]; EEF8, vector infected cells): caused little decrease; S6K and 4EBP1 phosphorylation ([6]; EEF8, wild type TSC2 expressing cells): significantly decreased; phosphorylation of S6K on T389 ([7]; 25 mM): effectively inhibited; also recorded: dephosphorylation; phosphorylation of S6 and 4EBP1 ([7]; 25 mM): dephosphorylation; phosphorylation of mTOR S2448 ([7]; 25 mM): inhibited; also recorded: dephosphorylation; S6K phosphorylation in TSC2 RNAi knockdown cells ([7]; HEK293, TSC2 RNAi): blocked in TSC2 knockdown cells, but not in the control cells; also recorded: knockdown of TSC2 by RNA interference blocks the 2-DG response; phosphorylation of S6K and 4EBP1 ([7]; depletion of cellular ATP): caused a dephosphorylation of S6K and 4EBP1; S6K and 4EBP1 phosphorylation ([8]; 20 to 100 mM, Dennis et al., 2001): inhibition of S6K and 4EBP1 phosphorylation; S6K activity ([8]; Kimura et al., Krause et al.): inhibit S6K activity; AMPK activation [9]: activate AMPK; mobility of TSC1 [10]: did not alter the mobility of TSC1; mobility shift of TSC2 ([10]; 2-DG treatment): mobility shift is due to phosphorylation; TSC2 phosphorylation (in vivo labeling, two dimensional phosphopeptide mapping) ([10]; 25 and 40 mM): enhanced phosphorylation of several peptides; also recorded: induce TSC2 phosphorylation on multiple spots in vivo; T172 phosphorylation in AMPK [11]: dramatic increase of T172 phosphorylation; also recorded: induces phosphorylation of AMPK; AMPK activation and S6K dephosphorylation as a function of treatment time ([11]; time course): rapid AMPK activation and concomitant dephosphorylation of S6K; phosphorylation of ACC and eEF2 [12]: 2-DG-induced phosphorylation of ACC and eEF2; interaction between endogenous AMPK and TSC2 (co-immunoprecipitation) [13]: interact preferentially with AMPK following 2-DG stimulation; also recorded: enhanced; also recorded: enhances the interaction between TSC2 and AMPK; also recorded: stimulates the interaction
